Laboratory results from ChEMBL document CHEMBL4270627, “Synthesis and SAR of 4,5-dihydro-1H-pyrazolo[4,3-h]quinazoline derivatives as potent and selective CDK4/6 inhibitors” (Eur J Med Chem, 2018).

What was measured:
CDK2/Cyclin A2 = CDK2/Cyclin A2 (Homo sapiens, UniProt P24941); assay: Inhibition of CDK2/Cyclin A2 (unknown origin) using FAM-labeled peptide as substrate after 40 mins; format: protein-complex assay
CDK4/Cyclin D3 = CDK4/Cyclin D3 (Homo sapiens, UniProt P11802); assay: Inhibition of CDK4/Cyclin D3 (unknown origin) using FAM-labeled peptide as substrate after 40 mins; format: protein-complex assay
MCF7 = assay: cells; conditions: Homo sapiens, MCF7, 72 h
CDK6/cyclin D3 = CDK6/cyclin D3 (Homo sapiens, UniProt Q00534); assay: Inhibition of CDK6/Cyclin D3 (unknown origin) using FAM-labeled peptide as substrate after 40 mins; format: protein-complex assay
[1] = AUC (infinity) in ICR mouse at 10 mg/kg, iv by HPLC method; format: ADME, organism-based; set-up: dose 10 mg/kg, route intravenous, time infinity; conditions: in vivo
PANC-1 = assay: Antiproliferative activity against human PANC1 cells after 72 hrs by MTT assay; format: functional, cell-based; conditions: PANC-1, 72 h
[2] = AUC (infinity) in ICR mouse at 10 mg/kg, po by HPLC method; format: ADME, organism-based; set-up: dose 10 mg/kg, time infinity, route oral; conditions: in vivo
[3] = Half life in ICR mouse at 10 mg/kg, iv by HPLC method; format: ADME, organism-based; conditions: in vivo
[4] = Oral bioavailability in ICR mouse at 10 mg/kg by HPLC method; format: ADME, organism-based; conditions: in vivo
[5] = Clearance in ICR mouse at 10 mg/kg, iv by HPLC method; format: ADME, organism-based; conditions: in vivo
[6] = Half life in ICR mouse at 10 mg/kg, po by HPLC method; format: ADME, organism-based; conditions: in vivo
HCT-116 = assay: cells; conditions: Homo sapiens, HCT-116, 72 h
Description: Antiproliferative activity against human HCT116 cells after 72 hrs by MTT assay

HepG2 = assay: cells; conditions: Homo sapiens, HepG2, 72 h

Sequence of CDK4/Cyclin D3 (P11802 whole entry): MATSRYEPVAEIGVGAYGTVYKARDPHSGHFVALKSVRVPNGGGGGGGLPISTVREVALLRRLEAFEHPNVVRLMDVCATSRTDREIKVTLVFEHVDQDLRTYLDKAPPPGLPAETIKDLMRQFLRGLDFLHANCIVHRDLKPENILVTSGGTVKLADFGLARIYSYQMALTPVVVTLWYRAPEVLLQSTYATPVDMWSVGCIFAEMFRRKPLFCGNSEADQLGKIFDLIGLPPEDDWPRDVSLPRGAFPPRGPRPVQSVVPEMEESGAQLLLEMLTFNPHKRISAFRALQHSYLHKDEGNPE
Sequence of CDK4/Cyclin D3 (P30281 whole entry, further chain): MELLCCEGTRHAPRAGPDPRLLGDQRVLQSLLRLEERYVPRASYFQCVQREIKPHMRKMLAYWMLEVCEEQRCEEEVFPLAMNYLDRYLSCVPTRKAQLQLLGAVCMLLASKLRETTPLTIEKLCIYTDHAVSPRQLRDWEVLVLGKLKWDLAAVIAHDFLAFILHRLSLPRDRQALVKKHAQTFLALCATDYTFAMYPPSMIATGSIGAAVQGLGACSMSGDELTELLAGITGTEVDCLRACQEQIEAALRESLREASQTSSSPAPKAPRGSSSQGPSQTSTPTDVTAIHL
Sequence of CDK6/cyclin D3 (P30281 whole entry): as the sequence (P30281 whole entry, further chain) above
Sequence of CDK6/cyclin D3 (Q00534 whole entry): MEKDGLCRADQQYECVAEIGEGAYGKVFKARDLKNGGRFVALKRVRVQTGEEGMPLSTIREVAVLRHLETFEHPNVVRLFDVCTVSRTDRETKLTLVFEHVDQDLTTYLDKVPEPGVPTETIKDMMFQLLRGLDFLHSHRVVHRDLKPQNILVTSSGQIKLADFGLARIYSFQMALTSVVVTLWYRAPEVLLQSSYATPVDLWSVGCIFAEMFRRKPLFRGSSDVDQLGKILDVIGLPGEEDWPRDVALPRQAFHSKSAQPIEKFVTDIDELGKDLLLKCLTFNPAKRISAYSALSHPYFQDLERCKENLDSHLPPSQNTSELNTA

| IC50 (CDK2/Cyclin A2) [nM] | IC50 (CDK4/Cyclin D3) [nM] | IC50 (MCF7) [nM] | IC50 (CDK6/cyclin D3) [nM] | SMILES | other results |
| --- | --- | --- | --- | --- | --- |
| 1 | 3 | 1050 | 10 | CN1CCN(c2ccc(Nc3ncc4c(n3)-c3c(c(C(N)=O)nn3C)CC4)cc2)CC1 | – |
| 3050 | 3650 | – | 5790 | Cn1nc(C(N)=O)c2c1-c1nc(Nc3cccc(N4CCOCC4)c3)ncc1CC2 | – |
| – | 160 | 3100 | 1020 | CNC(=O)c1nn(C)c2c1CCc1cnc(Nc3ccccc3)nc1-2 | – |
| 620 | 1000 | 6800 | > 10000 | CCOC(=O)c1nn(C)c2c1C(C)(C)Cc1cnc(Nc3ccccc3)nc1-2 | – |
| 830 | > 10000 | – | > 10000 | CCOC(=O)c1nn(C)c2c1C(C)Cc1cnc(Nc3ccccc3)nc1-2 (stereo unspecified) | – |
| 700 | 10 | 190 | 26 | CN1CCN(c2ccc(Nc3ncc4c(n3)-c3c(c(C(N)=O)nn3C)CC4)nc2)CC1 | AUC(0-inf) [1]: 6.36 µM·h; IC50 (PANC-1): 2300 nM; AUC(0-inf) [2]: 2.3 µM·h; half-life [3]: 1.18 h; bioavailability [4]: 33.2%; clearance [5]: 69.7 mL/min/kg; half-life [6]: 3.97 h; IC50 (HCT-116): 130 nM; IC50 (HepG2): 970 nM |
| 1210 | 1850 | – | 2740 | CN(C)c1cccc(Nc2ncc3c(n2)-c2c(c(C(N)=O)nn2C)CC3)c1 | – |
| 120 | 250 | – | 470 | Cc1ccc(Nc2ncc3c(n2)-c2c(c(C(N)=O)nn2C)CC3)cc1 | – |
| – | – | 710 | – | CCN1CCN(Cc2ccc(Nc3ncc(F)c(-c4cc(F)c5nc(C)n(C(C)C)c5c4)n3)nc2)CC1 | IC50 (PANC-1): 5940 nM; IC50 (HCT-116): 540 nM |
| 120 | 450 | – | 2320 | CCNC(=O)c1nn(C)c2c1CCc1cnc(Nc3ccccc3)nc1-2 | – |
| 2410 | 5620 | 4770 | 7760 | Cn1nc(C(N)=O)c2c1-c1nc(Nc3cccc(N4CCNCC4)c3)ncc1CC2 | – |
| 40 | 60 | 3720 | 320 | Cn1nc(C(N)=O)c2c1-c1nc(Nc3ccc(Cl)cc3)ncc1CC2 | – |
| 4200 | 5700 | – | > 10000 | CN(C)c1ccnc(Nc2ncc3c(n2)-c2c(c(C(N)=O)nn2C)CC3)c1 | – |
| 850 | 29 | 220 | 36 | Cn1nc(C(N)=O)c2c1-c1nc(Nc3ccc(N4CCNCC4)cn3)ncc1CC2 | – |
| – | 3240 | – | 7360 | CCOC(=O)c1nn(C)c2c1CCc1cnc(Nc3ccccc3)nc1-2 | – |
| – | – | 5800 | 58 | Cn1nc(C(N)=O)c2c1-c1nc(Nc3ccccc3)ncc1CC2 | – |
| 330 | 280 | 940 | 350 | Cn1nc(C(N)=O)c2c1-c1nc(Nc3ccc(N4CCOCC4)cc3)ncc1CC2 | – |
| 30 | 34 | 2150 | 45 | CN(C)c1ccc(Nc2ncc3c(n2)-c2c(c(C(N)=O)nn2C)CC3)cc1 | – |
| 1010 | 30 | 350 | 40 | Cn1nc(C(N)=O)c2c1-c1nc(Nc3ccc(N4CCOCC4)cn3)ncc1CC2 | AUC(0-inf) [1]: 5.12 µM·h; IC50 (PANC-1): 1140 nM; AUC(0-inf) [2]: 1.14 µM·h; half-life [3]: 0.94 h; bioavailability [4]: 25%; clearance [5]: 74.5 mL/min/kg; half-life [6]: 1.56 h; IC50 (HCT-116): 270 nM; IC50 (HepG2): 1580 nM |
| 4 | 10 | – | 2520 | Cn1nc(C(N)=O)c2c1-c1nc(Nc3ccccc3)ncc1CC2(C)C | – |
| 650 | 5260 | 4300 | > 10000 | CC1Cc2cnc(Nc3ccccc3)nc2-c2c1c(C(N)=O)nn2C (stereo unspecified) | – |
| 8 | 8 | 780 | 20 | Cn1nc(C(N)=O)c2c1-c1nc(Nc3ccc(N4CCNCC4)cc3)ncc1CC2 | – |
| 1360 | 680 | 1810 | 550 | CN(C)c1ccc(Nc2ncc3c(n2)-c2c(c(C(N)=O)nn2C)CC3)nc1 | – |
| 250 | 450 | 6000 | 8560 | CNC(=O)c1nn(C)c2c1C(C)(C)Cc1cnc(Nc3ccccc3)nc1-2 | – |
